Drawing on patent publication US8410175B2, “Anticancer effect enhancer” (Nippon Kayaku Kabushiki Kaisha, priority 2004, dated 2013), this text covers murine tumor volume for one molecule.

Experiment [1] relates to Murine Lewis lung carcinoma (LLC) cells. In words: Murine lung cancer model, tumor volume growth. Format: in vivo. Also on record: dose or concentration left out as unconfirmed. Conditions: LLC s.c. in C57BL6 mice; two weeks. On the procedure:
Tumor volume was calculated as 0.5×{tumor length (mm)}[…]{tumor width (mm)}^2. The […] was calculated by student t-test.
(§1) Murine Lewis lung carcinoma (LLC) cells, lung adenocarcinoma cells, were obtained from the Tohoku University Cell Resource Center for Biomedical Research and were incubated with DMEM plus 10% fetal bovine serum until cell proliferation was sufficient to perform the experiments. The LLC cells were adjusted to concentrations of 2×10^5 cells/100 μl with phosphate buffer saline (PBS), and were inoculated Six-week-old male C57BL6 mice purchased from Charles River Japan, Inc. (Tokyo, Japan) and Clea Japan, Inc. (Tokyo, Japan) subcutaneously (2×10^5 cells/100 μl/mouse) at the right hypochondrium. Mice were maintained under specific-pathogen-free conditions, and provided with sterile food and water. When transplanted tumors grew to approximately 100 mm^3 in tumor volume, animals were equally divided into four groups (Control group, n=6; C, NO donor group, n=6; N, Chemotherapy group, n=6; CTX, and NO plus chemotherapy group, n=6; N+CTX). Tumor volume was calculated as 0.5×{tumor length (mm)}×{tumor width (mm)}^2. […]

The test system of experiment [2] is Colon 26 cells, murine colon cancer cells. Description: Murine colon cancer model, tumor volume growth. It counts as in vivo. Also on record: dose or concentration left out as unconfirmed. The conditions noted are these: colon 26 s.c. in BALB/c mice; two weeks. On the procedure: Tumor volume was calculated as 0.5×{tumor length (mm)}×{tumor width (mm)}^2. The P value was calculated by student t-test.
as §1, with “Colon 26” for “Murine Lewis lung carcinoma (LLC)”, “murine colon cancer” for “lung adenocarcinoma”, “RPMI 1640” for “DMEM”, “colon 26” for “LLC”, “female BALB/c” for “male C57BL6”, “subcutanously” for “subcutaneously”

For `O=[N+]([O-])OCC(CO[N+](=O)[O-])O[N+](=O)[O-]` [NO donor, nitroglycerin], the murine tumor volume result in experiment [1] and in experiment [2] was “rapid tumor growth” throughout.
